Results taken from US11633512B2, “Method for disinfecting soils or other agricultural growing media” (Agrozono, S.L., priority 2017, dated 2023).
Read-outs that look alike come from different tables or passages of the source.

Columns and labels:
nematodes = test: Evolution of nematodes in soil after ozone treatment and inoculation of microorganisms; format: in vivo; conditions: 5.5 ppm of ozone for 2 hours; before treatment 480 juveniles/100 cc of earth
[1] = test system: Erwinia amylovora and Clavibacter michiganensis; test: Disinfection of infected soil in containers: survival of phytopathogenic bacteria; format: in vivo
Protocol: In order to achieve the aforementioned objectives, soil without crops was infected with the phytopathogenic species Sclerotinia, Fusarium, Erwinia, Phytophthora and Clavibacter. The assay was performed in Lorca (Murcia). It took place in open air in bins with soil without crops and wherein tomatoes, peppers and melons had been grown previously. After performing the first application of the method of the present invention, tomato plants, Lycopersicum esculentum, were transplanted, the response of the plants to the treatments being evaluated.
The microbiological content of the soil was evaluated at different depths: 20, 40 and 60 cm., before and after the applications.
Containers were installed with a known volume of 1000 l (1×1×1 m) in field. Moreover, a medium proceeding from a greenhouse with melons, peppers and tomatoes having been grown there previously was selected and homogenised. Subsequently, the containers were filled with this medium.
In the laboratory, the following species were cultivated in vitro: • Phytopathogenic bacteria: Erwinia amylovora and Clavibacter michiganensis • Phytopathogenic fungi: Sclerotinia sp, Fusarium oxysporum and Phytophthora citrophthora
Each microorganism was grown in liquid medium until reaching a concentration of 10^8 ufc/ml. For each of the bins, 1 litre of microbial solution was prepared.
Then the pathogenic microorganisms were inoculated in the medium, periodic irrigations were performed until reaching the capacity of the medium, samples were taken at different depths (20 cm, 40 cm and 60 cm) and the phytopathogens were counted in said samples, in order to verify the permanence and presence of phytopathogens in the soil.
A first application of the disinfection method with ozone was performed. To do so, the ozonation equipment was inserted into the irrigation system and the parameters of said equipment were adjusted in order to achieve ozonated water with at least 2 ppm of dissolved ozone. Subsequently, the soil was left to rest for 30 min and the tomato plants, Lycopersicum esculentum, were transplanted. Subsequently, a second application of the disinfection method with ozone was performed in the same conditions indicated previously and, after letting the treated soil rest for 30 min, the microorganism formula (1) was inoculated.
In order to analyse the effect of the treatment on the disinfection of the soil, samples were taken at different depths (20 cm, 40 cm and 60 cm) and on different dates, and the microbial load in each of the samples was analysed.
In this section the data obtained is described. As explained in the assay protocol, soil samples were taken at different depths (20 cm, 40 cm and 60 cm) and quality controls were performed quantifying the number of pathogenic fungi and bacteria present.

nematodes (Meloidogyne) = test: Disinfection of nematodes in Padrón pepper crop (greenhouse); format: in vivo, Meloidogyne sp.
Protocol: On a 500 m^2 surface of a greenhouse, with a water consumption of 3000 l/h, the disinfection with ozone was performed at a dose of 6 ppm, revising with the REDOX readings that a reading of 1000 mV is obtained in the farthest drip emitters, starting from a value of 185 mV in the irrigation water without ozone.
When the treatment ends, the inoculation of the microorganism formula (1) is performed (see example 1). Seven days after performing the treatment, samples of earth are taken to see the level of nematode infestation, observing a decrease of 90% of the population.

[2] = cited from earlier work
microorganisms = conditions: cited from earlier work
coliform bacteria = conditions: cited from earlier work
[3] = test system: tomato plants, Lycopersicum esculentum; test: Phytotoxicity and plant development of tomato plants transplanted into treated soil; format: in vivo
Protocol: Afterwards, as mentioned earlier, once the first disinfection was finished, tomato seedlings were transplanted into the bins in order to evaluate the “residual effect” of the treatment. Subsequently, the study of the plant development of the plants was performed.
After the first application of the disinfection method, on 19 Sep. 2014, 2 tomato plants were transplanted per container. The residual effect of the ozone was evaluated.
Throughout the assay, the parameters evaluated were: • Flow rate and ppm ozone at the outlet. • Microbial evaluation of the soil (t=0; t=7 days and t=30 days). • Relationship of the depth with the possible fungicidal effect. • Having established the tomato plants, it was evaluated if the treatments caused phytotoxicity.
The parameters that will be observed in the crop will be the appearance of necrosis and burning on leaves and fruits. • Plant development of the crop.
After the first application of the treatment with ozone, 2 tomato plants were transplanted into each of the containers. The growth of the plants was evaluated for three months, ending the analysis of this parameter on 2 January due to frost in the area (see FIGS. 5a and 5b).

[4] = test system: Sclerotinia sp, Fusarium oxysporum and Phytophthora citrophthora; test: Disinfection of infected soil in containers: survival of phytopathogenic fungi; format: in vivo; parameters: reduction of pathogenic fungi: concentration or dose not given beside the values

Compound: O=[O+][O-] [ozone]
- presence of juveniles after the treatment with ozone (nematodes): 44 /100 cc of earth
- mortality of pathogenic mesophilic bacteria ([1]; after first application of ozonated water): less than 50%
- reduction of pathogenic mesophilic bacteria ([1]; after second application): 50%
- reduction of pathogenic mesophilic bacteria ([1]; after second application, listed as ozonated water): at least 50%
- reduction of populations of pathogenic bacteria compared with control ([1]; application 1, all depths tested except 60 cm): less than 50%
- completeness of reduction of pathogenic bacteria ([1]; application 2): the reduction was not complete
- reduction of pathogenic mesophilic bacteria ([1]; second application, depth 60 cm): 60%
- Meloidogyne sp. after the disinfection (nematodes (Meloidogyne); ozonated irrigation, crop in full production, before disinfection 88 juveniles/100 cc soil): 8 juveniles/1 cc soil
- decrease of the nematode population (nematodes (Meloidogyne); ozone 6 ppm, then inoculation of microorganism formula (1), soil samples seven days after treatment): 90%
- useful life of ozone ([2]; water temperature of 15° C.): 30 min
- useful life of ozone ([2]; water temperature of 25° C.): 15 min
- time until degradation of the ozone into oxygen ([2]; water without organic matter, pH of 7, water temperature of 15° C.): about 30 minutes
- application period necessary for disinfection (microorganisms): 5 s
- time needed in order to eliminate microorganisms (microorganisms): four
- time to kill 99% of 60,000 coliform bacteria/ml (coliform bacteria): 2.8 s
- plant development of tomato plants ([3]; plants transplanted after first application into infected, treated soil): vigorous plant development
- phytotoxicity: growth and plant development ([3]; three months after the transplant): normal growth and plant development
- reduction of pathogenic fungi ([4]; application 1, 24 hours after application, depth 20 cm): 100%
- reduction of pathogenic fungi ([4]; application 1, 24 hours after application, depth 60 cm): 100%
- reduction of pathogenic fungi ([4]; application 2, depth 20 cm): 100%
- fungi present a month after application ([4]; application 2, depth 20 cm, 30 days): traces of fungi appearing a month later
- reduction of pathogenic fungi ([4]; application 2, depth 40 cm, effect prolonged for 30 days): 100%
- reduction of pathogenic fungi ([4]; application 2, depth 60 cm, effect prolonged for 30 days): 100%
- disinfection against the phytopathogenic fungi tested ([4]; overall result of the soil assays, ozonated water at least 2 ppm): 100%
